In US20130165459A1, “PHARMACEUTICAL COMPOSITION AND DOSAGE FORMS OF ELINOGREL AND METHODS OF USE THEREOF” (NORVARTIS PHARMA AG, priority 2010, published 2013):
Several values for one entry are separate records, joined by “and”; a condition that tells them apart may be missing. Equal values may be shown once.

Test: contact angle measurement (wettability)
Format: physicochemical
Conditions: for Contact Angle: water, n = 2; for surface hydrophobicity: critical angle around 50°
Description: The contact angle instrument was EasyDrop DSA15E (Krüss, Hamburg, Germany). The syringe was a NE44, with a needle diameter of 0.5 mm (Krüss, Hamburg, Germany). The standards (Krüss, Hamburg, Germany) were CP24 20007107, contact angle Gauge#4=30.00°±0.3, Gauge#5=60.00°±0.3, Gauge#6=120.00°±0.3.
The powder was pressed (approx 50 mg powder, 3 tons, 2 min) in tablets and analyzed by contact angle measuremnt. The angle between the solid and the liquid is measured after 0 and up to 60 seconds using water.
All determinations used the above method, and the limit for the standards measurements are well within the given limits.

SMILES | Contact Angle (0 sec) | Contact Angle (30 sec) | Contact Angle (60 sec) | surface hydrophobicity
CNc1cc2[nH]c(=O)n(-c3ccc(NC(=O)[N-]S(=O)(=O)c4ccc(Cl)s4)cc3)c(=O)c2cc1F.[K+] [A] | 78.8 ° | 53.3 ° | 51.0 ° | hydrophobic
CNc1cc2[nH]c(=O)n(-c3ccc(NC(=O)[N-]S(=O)(=O)c4ccc(Cl)s4)cc3)c(=O)c2cc1F.[K+] [B] | 72.4 ° and 79.7 ° | 54.6 ° and 55.2 ° | 53.5 ° and 52.8 ° | hydrophobic
CNc1cc2[nH]c(=O)n(-c3ccc(NC(=O)NS(=O)(=O)c4ccc(Cl)s4)cc3)c(=O)c2cc1F [Free acid, [4-(6-fluoro-7-methylamino-2,4-dioxo-1,4-dihydro-2H-quinazolin-3-yl)-phenyl]-5-chloro-thiophen-2-yl-sulfonylurea] | 65.9 ° | 60.8 ° | 60.1 ° | 
